This is an account of results in patent US8273753B2, “Polymorph B of N-{2-Fluoro-5-[3-(thiophene-2-carbonyl)-pyrazolo[1,5-a]pyrimidin-7-yl]-phenyl}-N-methyl-acetamide” (Ferrer International, S.A., priority 2006, dated 2012).

Structures are written as SMILES.

Type in all cases: in vivo
Data set [1] deals with mice. Kind of data set: EEG recording of the sleep-wake cycle in mice. The conditions noted are these: FIG. 7; for Effect on the three sleep parameters (time of wake, slow wave sleep, paradoxical sleep): mice, EEG, doses ED50, 3-fold and 6-fold. The procedure: This increased sedative/hypnotic efficacy was confirmed by electroencephalographyc (EEG) experiments, when the recording of the sleep-wake cycle in mice was evaluated. Based on the previous experiment, doses were chosen and both compounds were tested at equipotent pharmacological doses (the ED50, 3-fold and 6-fold for both cases).
In FIG. 7, results are expressed as the mean time (min±SEM) spent in each behavioral state during a recording period of 6 h in the same animals (n=9).

The subject of data set [2] is mice. Kind of data set: Two-way active avoidance paradigm in mice (amnesia liability). The conditions noted are these: oral administration; for MED amnesia (minimal effective dose that induces statistically significant impairment of memory): two-way active avoidance. On the procedure:
Finally, a third experiment to evaluate adverse effects was performed. The model was the two-way active avoidance paradigm, which represents a behavioural test useful for evaluating learning and memory processes in mice. In this case, the amnesia liability index was obtained. Since it was reported that benzodiazepine-like drugs induce amnesia, this index allows to determine the margin between the preclinical effective doses that induce sedation compared to the minimal effective dose that induce statistically significant impairment of memory in mice (MED amnesia/ED50 sedation). Therefore, the amnesic liability index was calculated for both compounds. The results obtained are included in Table 1

The test system of data set [3] is mice. Kind of data set: Spontaneous motor activity in mice after oral administration (induction of sedation). The conditions noted are these: for ED50: Mus musculus, oral administration, spontaneous motor activity, read-out: ED50 sedation (dose that induces sedation in 50% of animals). The procedure:
The effect of oral administration of both indiplon and the compound of the present invention on the spontaneous motor activity in mice is an accepted model to evaluate the induction of the sedation, an experiment considered predictive of hypnotic efficacy. In this experiment, the ED50—the dose that induces sedation in 50% of animals—was calculated.

The mark [4] stands for this setting: mice n=9, 6 h recording period, largest dose.

On to `CC(=O)N(C)c1cc(-c2ccnc3c(C(=O)c4cccs4)cnn23)ccc1F` [Compound (I), N-{2-Fluoro-5-[3-(thiophene-2-carbonyl)-pyrazolo[1,5-a]pyrimidin-7-yl]-phenyl}-N-methyl-acetamide], for which, in the data set with mice [1] (setting [4]), the “Paradoxical sleep (PS) time, change” value is given as “increase”; the “Slow wave sleep (SWS) mean time” value is “up to 140 min”; the “Waking (W) time, change” value is on record as “decrease”. Also, the “Effect on the three sleep parameters (time of wake, slow wave sleep, paradoxical sleep)” value with mice [1] was “statistically significant improvement on all three of the parameters evaluated”. For the same compound, in the data set with mice [2], the “Amnesic liability Index (MED amnesia/ED50 sedation)” value is given as 75 fold margin; the “Greater margin between sedation induction and amnesia than indiplon” value was 25 fold; the “MED amnesia (minimal effective dose that induces statistically significant impairment of memory)” value was 10 mg/kg. Also, in the data set with mice [3], the ED50 amounted to 0.13 mg/kg. In addition, the “Sedative potency relative to indiplon (more potent)” value in the data set on mice [3] (oral, ED50 0.13 vs 0.2 mg/Kg) stood at 35%.

For `CC(=O)N(C)c1cccc(-c2ccnc3c(C(=O)c4cccs4)cnn23)c1` [Indiplon, N-{3-[3-(thiophene-2-carbonyl)-pyrazolo[1,5-a]pyrimidin-7-yl]-phenyl}-N-methyl-acetamide, reference compound], the “Slow wave sleep (SWS) mean time” value in the data set with mice [1] (setting [4]) is reported as “less than 140 min”. Further, in the data set on mice [1], the “Effect on the three sleep parameters (time of wake, slow wave sleep, paradoxical sleep)” value was “effective only in one parameter (slow wave sleep)”. Moreover, in the data set with mice [2], the “Amnesic liability Index (MED amnesia/ED50 sedation)” value stood at 50 fold margin and the “MED amnesia (minimal effective dose that induces statistically significant impairment of memory)” value stood at 10 mg/kg. Moreover, in the data set with mice [3], the ED50 was 0.2 mg/kg.
